From US10273228B2, “Hepatitis B viral assembly effectors” (Indiana University Research and Technology Corporation, priority 2015, dated 2019)

How the values were obtained:
[1] = tested on: HBV viral load, AD38 cells; assay: Activity of test compounds on viral production from AD38 cells (viral load by quantitative PCR of the core sequence in supernatant); format: cell-based, Hepatitis B virus; settings: 10 μM compound, 6 days at 37° C., vs DMSO control wells, Table 9; for activity at 10 µM: Hepatitis B virus, 144 h, read-out: AD38 Viral Load (CpAM/DMSO %) at 10 μM
Outline: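 Cells seeded at 50,000/well on collagen-coated plates and exposed for 6 days at 37 °C to compound at 1, 3 or 10 μM final (1.0% DMSO). Supernatant viral DNA measured by TaqMan qPCR of the core sequence against known standards, compared with DMSO control wells.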

AD38 cells = assay: AD38 viability normalized to DMSO control; format: cell-based; settings: 10 μM compound, vs DMSO control; Table 9
Protocol: AD38 cells were then re-suspended with 10 mL of treatment medium and counted. Wells of a collagen coated 96-well NUNC microtiter plate were seeded at 50,000/well in 180 μL of treatment medium, and 20 μL of either 10% DMSO (Control) or a 10× solution of test compound in 10% DMSO in treatment media was added for a final compound concentration 1, 3, or 10 μM (1.0% final [DMSO]) and plates were incubated for 6 days at 37° C.

Cc1cc(Nc2ccc(F)cc2)nc(N2CCN(S(=O)(=O)c3ccc(CC(=O)O)cc3)CC2)n1 [Compound 1392, 2-(4-((4-(4-((4-fluorophenyl)amino)-6-methylpyrimidin-2-yl)piperazin-1-yl)sulfonyl)phenyl) acetic acid]
activity at 10 µM [1]: 69% | AD38 Viability Normalized Result (CPAM/DMSO %) at 10 μM (AD38 cells): 99%

COC(=O)Cc1ccc(S(=O)(=O)N2CCN(c3nc(C)cc(Nc4ccc(F)cc4)n3)CC2)cc1 [Compound 1393, methyl 2-(4-((4-(4-((4-fluorophenyl)amino)-6-methylpyrimidin-2-yl)piperazin-1-yl)sulfonyl)phenyl) acetate]
AD38 Viral Load (CpAM/DMSO %) at 10 μM [1]: 79% | AD38 Viability Normalized Result (CPAM/DMSO %) at 10 μM (AD38 cells): 102%

Cc1cc(Nc2ccc(F)cc2)nc(N2CCN(S(=O)(=O)c3ccc(OCCCC(=O)O)cc3)CC2)n1 [Compound 1394, 4-(4-((4-(4-((4-fluorophenyl)amino)-6-methylpyrimidin-2-yl)piperazin-1-yl)sulfonyl)phenoxy) butanoic acid]
activity at 10 µM [1]: 32% | AD38 Viability Normalized Result (CPAM/DMSO %) at 10 μM (AD38 cells): 79%

Cc1cc(Nc2ccc(F)cc2)nc(N2CCN(S(=O)(=O)c3ccc(O[C@H](C)C(=O)O)cc3)CC2)n1 [Compound 1395, (R)-2-(4-((4-(4-((4-fluorophenyl)amino)-6-methylpyrimidin-2-yl)piperazin-1-yl)sulfonyl)phenoxy) propanoic acid]
activity at 10 µM [1]: 42% | AD38 Viability Normalized Result (CPAM/DMSO %) at 10 μM (AD38 cells): 98%

Cc1cc(Nc2ccc(F)cc2)nc(N2CCN(S(=O)(=O)c3ccc(O[C@@H](C)C(=O)O)cc3)CC2)n1 [Compound 1396, (S)-2-(4-((4-(4-((4-fluorophenyl)amino)-6-methylpyrimidin-2-yl)piperazin-1-yl)sulfonyl)phenoxy) propanoic acid]
activity at 10 µM [1]: 70% | AD38 Viability Normalized Result (CPAM/DMSO %) at 10 μM (AD38 cells): 100%

COC(=O)CCCOc1ccc(S(=O)(=O)N2CCN(c3nc(Nc4ccc(F)cc4)cc(C(F)(F)F)n3)CC2)cc1 [Compound 1397, methyl 4-(4-((4-(4-((4-fluorophenyl)amino)-6-(trifluoromethyl)pyrimidin-2-yl)piperazin-1-yl)sulfonyl)phenoxy) butanoate]
AD38 Viral Load (CpAM/DMSO %) at 10 μM [1]: 5% | AD38 Viability Normalized Result (CPAM/DMSO %) at 10 μM (AD38 cells): 33%

O=C(O)CCCOc1ccc(S(=O)(=O)N2CCN(c3nc(Nc4ccc(F)cc4)cc(C(F)(F)F)n3)CC2)cc1 [Compound 1398, 4-(4-((4-(4-((4-fluorophenyl)amino)-6-(trifluoromethyl)pyrimidin-2-yl)piperazin-1-yl)sulfonyl)phenoxy) butanoic acid]
activity at 10 µM [1]: 4% | AD38 Viability Normalized Result (CPAM/DMSO %) at 10 μM (AD38 cells): 0%

O=C(O)COc1ccc(S(=O)(=O)N2CCN(c3nc(Nc4ccc(F)cc4)cc(C(F)(F)F)n3)CC2)cc1 [Compound 1399, 2-(4-((4-(4-((4-fluorophenyl)amino)-6-(trifluoromethyl)pyrimidin-2-yl)piperazin-1-yl)sulfonyl)phenoxy) acetic acid]
activity at 10 µM [1]: 43% | AD38 Viability Normalized Result (CPAM/DMSO %) at 10 μM (AD38 cells): 93%

CCCOc1ccc(S(=O)(=O)N2CCN(c3nc(Nc4ccc(F)cc4)cc(C(F)(F)F)n3)CC2)cc1 [Compound 1400]
activity at 10 µM [1]: 73% | AD38 Viability Normalized Result (CPAM/DMSO %) at 10 μM (AD38 cells): 93%

CCCCCOc1ccc(S(=O)(=O)N2CCN(c3nc(Nc4ccc(F)cc4)cc(C(F)(F)F)n3)CC2)cc1 [Compound 1401]
activity at 10 µM [1]: 42% | AD38 Viability Normalized Result (CPAM/DMSO %) at 10 μM (AD38 cells): 97%

COCCOCCOc1ccc(S(=O)(=O)N2CCN(c3nc(Nc4ccc(F)cc4)cc(C(F)(F)F)n3)CC2)cc1 [Compound 1402]
activity at 10 µM [1]: 12% | AD38 Viability Normalized Result (CPAM/DMSO %) at 10 μM (AD38 cells): 97%

Cc1cc(Nc2ccc(F)cc2)nc(N2CCN(S(=O)(=O)c3ccc(OC(C)(C)C(=O)O)cc3)CC2)n1 [Compound 1403, 2-(4-((4-(4-((4-fluorophenyl)amino)-6-methylpyrimidin-2-yl)piperazin-1-yl)sulfonyl)phenoxy)-2-methylpropanoic acid]
activity at 10 µM [1]: 83% | AD38 Viability Normalized Result (CPAM/DMSO %) at 10 μM (AD38 cells): 100%

CCOC(=O)C(C)(C)Oc1ccc(S(=O)(=O)N2CCN(c3nc(C)cc(Nc4ccc(F)cc4)n3)CC2)cc1 [Compound 1404, ethyl 2-(4-((4-(4-((4-fluorophenyl)amino)-6-methylpyrimidin-2-yl)piperazin-1-yl)sulfonyl)phenoxy)-2-methylpropanoate]
activity at 10 µM [1]: 90% | AD38 Viability Normalized Result (CPAM/DMSO %) at 10 μM (AD38 cells): 96%

CC(C)(Oc1ccc(S(=O)(=O)N2CCN(c3nc(Nc4ccc(F)cc4)cc(C(F)(F)F)n3)CC2)cc1)C(=O)O [Compound 1405, 2-(4-((4-(4-((4-fluorophenyl)amino)-6-(trifluoromethyl)pyrimidin-2-yl)piperazin-1-yl)sulfonyl)phenoxy)-2-methylpropanoic acid]
activity at 10 µM [1]: 28% | AD38 Viability Normalized Result (CPAM/DMSO %) at 10 μM (AD38 cells): 84%

CCOC(=O)C(C)(C)Oc1ccc(S(=O)(=O)N2CCN(c3nc(Nc4ccc(F)cc4)cc(C(F)(F)F)n3)CC2)cc1 [Compound 1406, ethyl 2-(4-((4-(4-((4-fluorophenyl)amino)-6-(trifluoromethyl)pyrimidin-2-yl)piperazin-1-yl)sulfonyl)phenoxy)-2-methylpropanoate]
activity at 10 µM [1]: 63% | AD38 Viability Normalized Result (CPAM/DMSO %) at 10 μM (AD38 cells): 98%

COCCOc1ccc(S(=O)(=O)N2CCN(c3nc(Nc4ccc(F)cc4)cc(C(F)(F)F)n3)CC2)cc1 [Compound 1407]
activity at 10 µM [1]: 12% | AD38 Viability Normalized Result (CPAM/DMSO %) at 10 μM (AD38 cells): 91%

COC(=O)Cc1ccc(S(=O)(=O)N2CCN(c3nc(Nc4ccc(F)cc4)cc(C(F)(F)F)n3)CC2)cc1 [Compound 1408, methyl 2-(4-((4-(4-((4-fluorophenyl)amino)-6-(trifluoromethyl)pyrimidin-2-yl)piperazin-1-yl)sulfonyl)phenyl) acetate]
AD38 Viral Load (CpAM/DMSO %) at 10 μM [1]: 8% | AD38 Viability Normalized Result (CPAM/DMSO %) at 10 μM (AD38 cells): 107%

C[C@@H](Oc1ccc(S(=O)(=O)N2CCN(c3nc(Nc4ccc(F)cc4)cc(C(F)(F)F)n3)CC2)cc1)C(=O)O [Compound 1409, (R)-2-(4-((4-(4-((4-fluorophenyl)amino)-6-(trifluoromethyl)pyrimidin-2-yl)piperazin-1-yl)sulfonyl)phenoxy) propanoic acid]
activity at 10 µM [1]: 59% | AD38 Viability Normalized Result (CPAM/DMSO %) at 10 μM (AD38 cells): 108%

C[C@H](Oc1ccc(S(=O)(=O)N2CCN(c3nc(Nc4ccc(F)cc4)cc(C(F)(F)F)n3)CC2)cc1)C(=O)O [Compound 1410, (S)-2-(4-((4-(4-((4-fluorophenyl)amino)-6-(trifluoromethyl)pyrimidin-2-yl)piperazin-1-yl)sulfonyl)phenoxy) propanoic acid]
activity at 10 µM [1]: 14% | AD38 Viability Normalized Result (CPAM/DMSO %) at 10 μM (AD38 cells): 58%
